Target: P2Y purinoceptor 12 (Homo sapiens, UniProt Q9H244)
Test: Binding affinity against Purinergic receptor P2Y12 using [3H]2-methylthio-ADP as radioligand
Format: tissue-based

P2Y purinoceptor 12, sequence (Q9H244 whole entry): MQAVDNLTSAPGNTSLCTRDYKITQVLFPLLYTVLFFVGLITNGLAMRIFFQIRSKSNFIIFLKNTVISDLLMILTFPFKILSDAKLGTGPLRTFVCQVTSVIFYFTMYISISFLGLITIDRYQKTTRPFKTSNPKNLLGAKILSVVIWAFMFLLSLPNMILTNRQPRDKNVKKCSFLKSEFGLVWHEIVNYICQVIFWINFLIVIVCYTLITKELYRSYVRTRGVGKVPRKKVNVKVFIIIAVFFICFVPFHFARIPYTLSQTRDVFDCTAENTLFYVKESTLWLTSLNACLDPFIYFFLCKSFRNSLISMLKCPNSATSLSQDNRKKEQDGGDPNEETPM

IC50	Compound
2200 nM	CC(C(O)C(O)[C@@H](C)C1CC[C@H]2[C@@H]3CC[C@H]4C[C@H](OS(=O)(=O)O)[C@H](OS(=O)(=O)O)C[C@]4(C)[C@@]3(C)CC[C@]12C)C(C)(C)C (some centres not stated)
480 nM	CC(CC[C@@H](C)C1CC[C@H]2[C@@H]3C[C@H](OS(=O)(=O)O)[C@H]4C[C@H](OS(=O)(=O)O)[C@H](OS(=O)(=O)O)C[C@]4(C)[C@@]3(C)CC[C@]12C)C(C)(C)C (some centres not stated)

— ChEMBL document CHEMBL1144962, “A new sterol sulfate, Sch 572423, from a marine sponge, Topsentia sp” (Bioorg Med Chem Lett, 2003)
